Assay results: patent US20240002846A1, “COMPOSITIONS AND METHODS FOR THE DIAGNOSIS AND TREATMENT OF ITCH” (Duke University, priority 2020, published 2024)
Entries after “also recorded” stand apart in the source; their conditions may differ.

Columns and labels:
mice [1] = experiment: Scratching behavior after i.d. injection into dorsal neck skin; format: in vivo, mouse; details: for scratching behavior (itch) induced by i.d. injection of lipid: i.d. into dorsal neck, LPA 18:1 500 μg, LPC 50-500 μg, LPC species at the same dose
Experimental: (§1) Behavioral assessment. Mice were shaved at the dorsal neck 1 d before experiments. Mice were allowed to acclimate to a Plexiglas chamber for at least 30 min before testing and received intradermal (i.d.) injection of 50 μL of LPA 18:1, LPC, LPC 14:0, LPC 16:0, LPC 18:0, LPC 18:1, miR-146a mimic, miR-146a scramble, ATP or vehicles through a 30-gauge needle (Becton Dickinson, Franklin Lakes, NJ) into the neck skin. After injections, mice were immediately placed back to the chamber, and the scratching behavior was recorded by a Panasonic video camera for 30 min. Hind limb scratching behavior directed toward the injected area at the nape of neck was observed. One scratch is defined as a lifting of the hind limb toward the injection site and then a replacing of the limb back to the floor, regardless of how many scratching strokes take place between those two movements. Behavioral analysis was conducted by observers blinded to genotype.

hTRPV4 = target: T1, hTRPV4 (Homo sapiens, UniProt Q9HBA0); experiment: Ca2+ imaging in HEK cells transfected with hTRPV4; format: cell-based; details: inhibitor 10 μM
T1 construct: expressed in transfected cells; host or cells: HEK293 (ATCC CRL-1573)
Experimental: Cell culture and transfection. HEK293 cells (ATCC® CRL-1573) were cultured on poly-D-lysine coated coverslips in 24-well plate containing DMEM media with high-Glucose (Gibco, Gaithersburg, MD) supplemented with 10% fetal bovine serum (FBS, HyClone Laboratories, Logan, UT) and 100 U/mL of penicillin/streptomycin (Gibco, Gaithersburg, MD). Cell cultures were maintained with 5% of CO2 in a humidified incubator at 37° C. HEK cells were transfected with rat or human wild type or mutant TRPV4 channels with EGFP or YFP coupled to their C-termini (1.5 μg of plasmid for excised patch clamp and Ca^2+ imaging and 200 ng for single-channel experiments). The jetPEI™ Polyplus transfection reagent (Polyplus Transfection, New York, NY) for electrophysiology or Lipofectamine™ 2000 Reagent (Invitrogen, Waltham, MA) for Ca^2+ imaging were used for transfections per manufacturer's instructions as previously described (Chen et al. Pain 2014, 155, 2662-2672; Morales-Lazaro et al. Nat. Commun. 2016, 7, 13092). To investigate whether miR-146a can directly activate TRPV1 channels or indirectly via TLRs, HEK293 cells were transfected with rTRPV1 or co-transfected rTRPV1 with rTLR7, rTLR2, or rTLR6 (Addgene, Watertown, MA) for Ca^2+ imaging assay. Control cells were transfected with GFP or YFP.
In vitro and ex vivo Ca^2+ imaging. Routine procedures were followed for Ca^2+ imaging in cultured DRG sensory neurons, epidermal keratinocytes, and HEK cells (Chen et al. J. Biol. Chem. 2016, 291, 10252-10262; Chen et al. Pain 2014, 155, 2662-2672). Ca^2+ imaging of cultured cells in response to chemicals was conducted after loading with 5 μM Fura2-AM (Invitrogen, Waltham, MA) for 45 min after a ratiometric Ca^2+-imaging protocol with 340/380-nm blue light for dual excitation. Ratios of emissions were acquired at 0.5 Hz. ΔR/R0 was determined as the fraction of the increase of a given ratio over baseline ratio divided by baseline ratio. To investigate the effects of the TRPV4 inhibitors GSK205 or HC067047, the PLC inhibitor U73122, the Gag G Protein inhibitor BIM46187, the Gβγ G protein inhibitor Gallein, the TRPV1 inhibitor SB366791, the TRPA1 inhibitor HC030031, and IPP for TRPV3, on LPA-induced Ca^2+ influx, LPC-induced Ca^2+ influx, or miR-146α-induced Ca^2+ influx, cells were incubated with the inhibitors for 15 min before stimulation. Control cells received vehicles.

human keratinocytes = experiment: Ca2+ imaging in cultured human keratinocytes; format: cell-based; details: for effect on LPC 18:1 (10 μM)-induced Ca2+ influx (GPCR-signaling inhibitors): inhibitor 10 μM; for LPA (18:1) induced Ca2+ influx: up to 30 μM
Experimental: In brief, surgically discarded foreskin samples, obtained from Duke Children's Hospital in accordance to institutionally approved IRB protocol, were incubated with Dispase (Gibco, Gaithersburg, MD, 4 U/mL) for 12-16 h at 4° C. followed by 0.05% trypsin (Gibco, Gaithersburg, MD) for 10-20 min at 37° C. Cells were maintained in keratinocyte serum-free media (Invitrogen, Waltham, MA) with 5% CO2 at 37° C. and used at passage 2-3.
(§2) In vitro and ex vivo Ca^2+ imaging. […] Ca^2+ imaging of cultured cells in response to chemicals was conducted after loading with 5 μM Fura2-AM (Invitrogen, Waltham, MA) for 45 min after a ratiometric Ca^2+-imaging protocol with 340/380-nm blue light for dual excitation. Ratios of emissions were acquired at 0.5 Hz. ΔR/R0 was determined as the fraction of the increase of a given ratio over baseline ratio divided by baseline ratio. […] Control cells received vehicles.

mouse keratinocytes = experiment: Ca2+ imaging in cultured mouse keratinocytes; format: cell-based; details: for effect on LPC 18:1 (10 μM)-induced Ca2+ influx (GPCR-signaling inhibitors): inhibitor 10 μM; for LPA (18:1) induced Ca2+ influx: up to 30 μM
Experimental: Basal keratinocytes were separated from the cornified sheets by filtration through a […] cell strainer. Keratinocytes were plated on collagen I-coated dishes or glass coverslips and grown in EME media (Gibco, Gaithersburg, MD) containing 8% chelex (Bio-rad, Hercules, CA)-treated FBS with the final Ca^2+ adjusted to 0.05 mM, bovine pituitary extract (50 μg/mL), epidermal growth factor (5 ng/mL), and lx antibiotics/antimycotics (Gibco, Gaithersburg, MD) in a humidified incubator with 5% CO2 at 37° C. for 5-7 days until use. To knockdown Trpv4 in isolated keratinocytes from newborn keratinocyte-Trpv4 cKO mice, cells were treated with 4-OH tamoxifen at 500 nM for 72 h.
as §2

mice [2] = experiment: Effect of inhibitor pretreatment on LPA-, LPC- or miR-146a-induced scratching behavior; format: in vivo, mouse; details: for effect on scratching evoked by i.d. miR-146a (4 nmol) (TLR inhibitors): i.p. 10 mg/kg
Experimental: as §1, with “Mice were allowed to acclimate to a Plexiglas chamber for at least 30 min before testing and received intradermal (i.d.) injection of 50 μL of LPA 18:1, LPC, LPC 14:0, LPC 16:0, LPC 18:0, LPC 18:1, miR-146a mimic, miR-146a scramble, ATP or vehicles through a 30-gauge needle (Becton Dickinson, Franklin Lakes, NJ) into the neck skin.” left out
Control animals received the same volume of vehicles.
Lumbar puncture was made with a 30G-needle and drugs at 5 μL of volume were delivered. Scratching behavior assay was started approximately 2 weeks after resiniferatoxin treatment.

T1 sequence (Q9HBA0 whole entry): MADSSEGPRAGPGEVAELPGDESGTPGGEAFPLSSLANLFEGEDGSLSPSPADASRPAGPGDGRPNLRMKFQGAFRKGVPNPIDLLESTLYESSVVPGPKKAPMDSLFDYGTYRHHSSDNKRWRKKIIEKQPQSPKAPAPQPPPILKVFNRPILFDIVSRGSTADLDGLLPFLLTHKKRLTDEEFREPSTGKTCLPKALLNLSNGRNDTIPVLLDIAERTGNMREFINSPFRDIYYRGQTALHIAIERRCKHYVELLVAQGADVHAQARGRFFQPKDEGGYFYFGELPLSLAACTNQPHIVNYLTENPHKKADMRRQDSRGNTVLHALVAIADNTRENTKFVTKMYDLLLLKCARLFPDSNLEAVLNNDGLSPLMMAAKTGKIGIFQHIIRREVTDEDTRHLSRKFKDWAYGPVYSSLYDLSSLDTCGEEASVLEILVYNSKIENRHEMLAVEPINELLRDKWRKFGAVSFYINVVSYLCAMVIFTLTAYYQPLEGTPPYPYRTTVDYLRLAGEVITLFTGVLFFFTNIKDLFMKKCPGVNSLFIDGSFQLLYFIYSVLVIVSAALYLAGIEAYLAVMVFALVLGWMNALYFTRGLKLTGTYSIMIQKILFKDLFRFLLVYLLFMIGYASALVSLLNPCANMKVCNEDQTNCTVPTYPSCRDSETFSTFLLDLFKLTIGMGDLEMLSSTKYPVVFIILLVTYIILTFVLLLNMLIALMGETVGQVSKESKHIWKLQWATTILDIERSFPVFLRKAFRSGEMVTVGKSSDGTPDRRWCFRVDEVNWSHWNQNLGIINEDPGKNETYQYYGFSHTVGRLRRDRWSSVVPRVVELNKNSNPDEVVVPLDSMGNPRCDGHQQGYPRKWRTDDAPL

Molecule: Nc1ncnc2c1ncn2[C@@H]1O[C@H](COP(=O)(O)OP(=O)(O)OP(=O)(O)O)[C@@H](O)[C@H]1O [ATP, adenosine triphosphate]
- scratching behavior induced by i.d. ATP (mice [1]; i.d. 10 nmol or 100 nmol vs normal saline): not to have any pruritogenic effects; also recorded: did not elicit significant scratching behaviors

Molecule: N[C@@H](CSSC[C@H](N)C(=O)N1CCn2cc(-c3ccccc3)nc2[C@@H]1CC1CCCCC1)C(=O)N1CCn2cc(-c3ccccc3)nc2[C@@H]1CC1CCCCC1 [BIM46187]
- effect on LPC 18:1 (10 μM)-induced Ca2+ influx (GPCR-signaling inhibitors) (hTRPV4): not significantly altered
- effect on LPC 18:1 (10 μM)-induced Ca2+ influx (GPCR-signaling inhibitors) (hTRPV4; listed as BIM-46187): no inhibitory effects
- effect on LPC 18:1 (10 μM)-induced Ca2+ influx (GPCR-signaling inhibitors) (human keratinocytes): not significantly altered
- effect on LPC 18:1 (10 μM)-induced Ca2+ influx (GPCR-signaling inhibitors) (human keratinocytes; listed as BIM-46187): no inhibitory effects
- effect on LPC 18:1 (10 μM)-induced Ca2+ influx (GPCR-signaling inhibitors) (mouse keratinocytes): not significantly altered
- effect on LPC 18:1 (10 μM)-induced Ca2+ influx (GPCR-signaling inhibitors) (mouse keratinocytes; listed as BIM-46187): no inhibitory effects

Molecule: c1cc(-c2nc3ccc(OCCCN4CCCC4)cc3o2)ccc1OCCCN1CCCC1 [E6446]
- effect on scratching evoked by i.d. miR-146a (4 nmol) (TLR inhibitors) (mice [2]): not significantly altered

Molecule: O=C(O)CC1CC(c2ccccc2)=NO1 (centres unmarked) [GIT27]
- effect on scratching evoked by i.d. miR-146a (4 nmol) (TLR inhibitors) (mice [2]): not significantly altered

Molecule: O=C1OC2(c3ccccc31)c1ccc(O)c(O)c1Oc1c2ccc(O)c1O [Gallein]
- effect on LPC 18:1 (10 μM)-induced Ca2+ influx (GPCR-signaling inhibitors) (hTRPV4): no inhibitory effects; also recorded: not significantly altered
- effect on LPC 18:1 (10 μM)-induced Ca2+ influx (GPCR-signaling inhibitors) (human keratinocytes): no inhibitory effects; also recorded: not significantly altered
- effect on LPC 18:1 (10 μM)-induced Ca2+ influx (GPCR-signaling inhibitors) (mouse keratinocytes): no inhibitory effects; also recorded: not significantly altered

Molecule: O=C(CCN1CCN(C(=O)OCc2cc(Cl)cc(Cl)c2)CC1)c1ccc2[nH]c(=O)oc2c1 [PF8380]
- effect on LPC-induced itch (autotaxin inhibitor), WT mice (mice [2]; i.p. pretreatment 10 mg/kg, WT mice): attenuated

Molecule: COc1ccc2c(c1)CC[C@@H]1[C@@H]2CC[C@]2(C)[C@@H](NCCCCCCN3C(=O)C=CC3=O)CC[C@@H]12 [U73122]
- effect on LPC 18:1 (10 μM)-induced Ca2+ influx (GPCR-signaling inhibitors) (hTRPV4): no inhibitory effects; also recorded: not significantly altered
- effect on LPC 18:1 (10 μM)-induced Ca2+ influx (GPCR-signaling inhibitors) (human keratinocytes): no inhibitory effects; also recorded: not significantly altered
- effect on LPC 18:1 (10 μM)-induced Ca2+ influx (GPCR-signaling inhibitors) (mouse keratinocytes): no inhibitory effects; also recorded: not significantly altered

Molecule: LPC 14:0
- scratching behavior (itch) induced by i.d. injection of lipid (mice [1]): caused robust itch

Molecule: lysophosphatidic acid [LPA (18:1)]
- LPA (18:1) induced Ca2+ influx (human keratinocytes): not dose-dependent and was less robust than that of LPC
- LPA (18:1) induced Ca2+ influx (human keratinocytes; listed as LPA): much reduced
- LPA (18:1) induced Ca2+ influx (mouse keratinocytes): not dose-dependent and was less robust than that of LPC
- LPA (18:1) induced Ca2+ influx (mouse keratinocytes; listed as LPA): much reduced
- scratch bouts (mice [1]; i.d. 500 μg into dorsal neck, WT mice): 58 scratch bouts in 30 min
- scratching behavior (itch) induced by i.d. injection of lipid (mice [1]): elicited moderate scratching; also recorded: induced itch
